42 compounds from patent publication US8394848B2, “Compounds that modulate intracellular calcium” (Calcimedica, Inc., priority 2008, dated 2013) can be followed below.

The test has as its system JR251 or RBL cells. Put plainly: Store-operated calcium entry, either JR251 or RBL cells, or both. It is filed as cell-based. The procedure, abridged: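 Orai1/STIM1 stable cells: fluo-4-AM loaded, compound 30 min at RT in Ca2+-free HBSS, then CaCl2 added; IC50 from Peak-Basal FLIPR fluorescence. RBL-2H3 cells: compound 5 min, then thapsigargin (5.5× stock, 5.5 uM) 25 min, then calcium added; IC50 from Upslope (signal 7 s after calcium minus baseline).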

As for `O=C(CC1CCc2ccccc21)Nc1scc(-c2ccc(Cl)cc2)c1C(=O)O` (stereo not drawn) [4-(4-chlorophenyl)-2-(2-(2,3-dihydro-1H-inden-1-yl)acetamido)thiophene-3-carboxylic acid], the IC50 is below 10 µM. The same measure for `O=Cc1sccc1OCC(=O)Nc1scc(-c2ccc(Cl)cc2)c1C(=O)O` [4-(4-chlorophenyl)-2-(2-(2-formylthiophen-3-yloxy)acetamido)thiophene-3-carboxylic acid]: below 10 µM; for `O=C(Nc1scc(-c2ccc(Cl)cc2)c1C(=O)O)c1cnc(C(F)(F)F)nc1` [4-(4-chlorophenyl)-2-(2-(trifluoromethyl)pyrimidine-5-carboxamido)thiophene-3-carboxylic acid]: below 10 µM; for `O=C(O)c1c(-c2ccc(Cl)cc2)csc1NC(=O)C(F)Cc1ccccc1` (stereo not drawn) [4-(4-chlorophenyl)-2-(2-fluoro-3-phenylpropanamido)thiophene-3-carboxylic acid]: below 10 µM.

For the compound `CC(C(=O)Nc1scc(-c2ccc(Cl)cc2)c1C(=O)O)C(C)c1ccccc1` (stereo not drawn) [4-(4-chlorophenyl)-2-(2-methyl-3-phenylbutanamido)thiophene-3-carboxylic acid], the IC50 is below 10 µM. The same measure for `CC(Cc1ccccc1)C(=O)Nc1scc(-c2ccc(Cl)cc2)c1C(=O)O` (stereo not drawn) [4-(4-chlorophenyl)-2-(2-methyl-3-phenylpropanamido)thiophene-3-carboxylic acid]: below 10 µM. The same measure for `Cc1oc(-c2ccccc2)cc1C(=O)Nc1scc(-c2ccc(Cl)cc2)c1C(=O)O` [4-(4-chlorophenyl)-2-(2-methyl-5-phenylfuran-3-carboxamido)thiophene-3-carboxylic acid]: below 10 µM.

In the case of `O=C(COc1ccccc1)Nc1scc(-c2ccc(Cl)cc2)c1C(=O)O` [4-(4-chlorophenyl)-2-(2-phenoxyacetamido)thiophene-3-carboxylic acid], the IC50 was below 10 µM. With `O=C(Cc1ccccc1)Nc1scc(-c2ccc(Cl)cc2)c1C(=O)O` [4-(4-chlorophenyl)-2-(2-phenylacetamido)thiophene-3-carboxylic acid], the IC50 was below 10 µM. The same measure for `O=C(CC(c1ccccc1)c1ccccc1)Nc1scc(-c2ccc(Cl)cc2)c1C(=O)O` [4-(4-chlorophenyl)-2-(3,3-diphenylpropanamido)thiophene-3-carboxylic acid]: below 10 µM; for `Cc1noc(C)c1C(=O)Nc1scc(-c2ccc(Cl)cc2)c1C(=O)O` [4-(4-chlorophenyl)-2-(3,5-dimethylisoxazole-4-carboxamido)thiophene-3-carboxylic acid]: below 10 µM. To `O=C(CCc1ccc(F)cc1F)Nc1scc(-c2ccc(Cl)cc2)c1C(=O)O` [4-(4-chlorophenyl)-2-(3-(2,4-difluorophenyl)propanamido)thiophene-3-carboxylic acid] belongs below 10 µM. As for `O=C(O)c1c(-c2ccc(Cl)cc2)csc1NC(=O)C(F)Cc1c(Cl)cccc1Cl` (stereo not drawn) [4-(4-chlorophenyl)-2-(3-(2,6-dichlorophenyl)-2-fluoropropanamido)thiophene-3-carboxylic acid], the IC50 is below 10 µM.

`O=C(CCc1c(Cl)cccc1Cl)Nc1scc(-c2ccc(Cl)cc2)c1C(=O)O` [4-(4-chlorophenyl)-2-(3-(2,6-dichlorophenyl)propanamido)thiophene-3-carboxylic acid]: the IC50 was below 10 µM. `Cc1cccc(C)c1CCC(=O)Nc1scc(-c2ccc(Cl)cc2)c1C(=O)O` [4-(4-chlorophenyl)-2-(3-(2,6-dimethylphenyl)propanamido)thiophene-3-carboxylic acid]: the IC50 is below 10 µM.

Turning to `N#CC(Cc1ccccc1Cl)C(=O)Nc1scc(-c2ccc(Cl)cc2)c1C(=O)O` (stereo not drawn) [4-(4-chlorophenyl)-2-(3-(2-chlorophenyl)-2-cyanopropanamido)thiophene-3-carboxylic acid], the IC50 was below 10 µM. The same measure for `O=C(O)c1c(-c2ccc(Cl)cc2)csc1NC(=O)C(F)Cc1ccccc1Cl` (stereo not drawn) [4-(4-chlorophenyl)-2-(3-(2-chlorophenyl)-2-fluoropropanamido)thiophene-3-carboxylic acid]: below 10 µM; for `O=C(CCc1ccccc1Cl)Nc1scc(-c2ccc(Cl)cc2)c1C(=O)O` [4-(4-chlorophenyl)-2-(3-(2-chlorophenyl)propanamido)thiophene-3-carboxylic acid]: below 10 µM; for `N#Cc1ccccc1CCC(=O)Nc1scc(-c2ccc(Cl)cc2)c1C(=O)O` [4-(4-chlorophenyl)-2-(3-(2-cyanophenyl)propanamido)thiophene-3-carboxylic acid]: below 10 µM.

For the compound `O=C(NCc1ccccc1F)Nc1scc(-c2ccc(Cl)cc2)c1C(=O)O` [4-(4-chlorophenyl)-2-(3-(2-fluorobenzyl)ureido)thiophene-3-carboxylic acid], the IC50 is below 10 µM.

As to `O=C(CCc1ccccc1F)Nc1scc(-c2ccc(Cl)cc2)c1C(=O)O` [4-(4-chlorophenyl)-2-(3-(2-fluorophenyl)propanamido)thiophene-3-carboxylic acid], the IC50 is below 10 µM. To `O=C(CCc1ccc(F)c(F)c1)Nc1scc(-c2ccc(Cl)cc2)c1C(=O)O` [4-(4-chlorophenyl)-2-(3-(3,4-difluorophenyl)propanamido)thiophene-3-carboxylic acid] belongs below 10 µM; to `O=C(CCc1cccc(Cl)c1)Nc1scc(-c2ccc(Cl)cc2)c1C(=O)O` [4-(4-chlorophenyl)-2-(3-(3-chlorophenyl)propanamido)thiophene-3-carboxylic acid], below 10 µM; to `O=C(CCc1cccc(F)c1)Nc1scc(-c2ccc(Cl)cc2)c1C(=O)O` [4-(4-chlorophenyl)-2-(3-(3-fluorophenyl)propanamido)thiophene-3-carboxylic acid], below 10 µM. To `O=C(CCc1ccc(Cl)cc1)Nc1scc(-c2ccc(Cl)cc2)c1C(=O)O` [4-(4-chlorophenyl)-2-(3-(4-chlorophenyl)propanamido)thiophene-3-carboxylic acid] belongs below 10 µM; to `O=C(CCc1ccc(F)cc1)Nc1scc(-c2ccc(Cl)cc2)c1C(=O)O` [4-(4-chlorophenyl)-2-(3-(4-fluorophenyl)propanamido)thiophene-3-carboxylic acid], below 10 µM.

For the compound `O=C(NCC1CCCCC1)Nc1scc(-c2ccc(Cl)cc2)c1C(=O)O` [4-(4-chlorophenyl)-2-(3-(cyclohexylmethyl)ureido)thiophene-3-carboxylic acid], the IC50 is below 10 µM.

For the compound `O=C(CCc1ccco1)Nc1scc(-c2ccc(Cl)cc2)c1C(=O)O` [4-(4-chlorophenyl)-2-(3-(furan-2-yl)propanamido)thiophene-3-carboxylic acid], the IC50 is below 10 µM. To `O=C(CCc1cccs1)Nc1scc(-c2ccc(Cl)cc2)c1C(=O)O` [4-(4-chlorophenyl)-2-(3-(thiophen-2-yl)propanamido)thiophene-3-carboxylic acid] belongs below 10 µM; to `Cc1cccc2nc(C(=O)Nc3scc(-c4ccc(Cl)cc4)c3C(=O)O)c(F)n12` [4-(4-chlorophenyl)-2-(3-fluoro-5-methylimidazo[1,2-a]pyridine-2-carboxamido)thiophene-3-carboxylic acid], below 10 µM; to `CC(C)(CC(=O)Nc1scc(-c2ccc(Cl)cc2)c1C(=O)O)c1ccccc1` [4-(4-chlorophenyl)-2-(3-methyl-3-phenylbutanamido)thiophene-3-carboxylic acid], below 10 µM.

As for `Cc1ccsc1C(=O)Nc1scc(-c2ccc(Cl)cc2)c1C(=O)O` [4-(4-chlorophenyl)-2-(3-methylthiophene-2-carboxamido)thiophene-3-carboxylic acid], the IC50 was below 10 µM. To `O=C(NCCc1ccccc1)Nc1scc(-c2ccc(Cl)cc2)c1C(=O)O` [4-(4-chlorophenyl)-2-(3-phenethylureido)thiophene-3-carboxylic acid] belongs below 10 µM. As to `O=C(Nc1scc(-c2ccc(Cl)cc2)c1C(=O)O)c1c[nH]nc1-c1ccccc1` [4-(4-chlorophenyl)-2-(3-phenyl-1H-pyrazole-4-carboxamido)thiophene-3-carboxylic acid], the IC50 is below 10 µM.

`O=C(O)c1c(-c2ccc(Cl)cc2)csc1NC(=O)C(Cc1ccccc1)n1cnnn1` (stereo not drawn) [4-(4-chlorophenyl)-2-(3-phenyl-2-(1H-tetrazol-1-yl)propanamido)thiophene-3-carboxylic acid]: the IC50 is below 10 µM. Regarding `CC(CC(=O)Nc1scc(-c2ccc(Cl)cc2)c1C(=O)O)c1ccccc1` (stereo not drawn) [4-(4-chlorophenyl)-2-(3-phenylbutanamido)thiophene-3-carboxylic acid], the IC50 is below 10 µM. As for `O=C(CCc1ccccc1)Nc1scc(-c2ccc(Cl)cc2)c1C(=O)O` [4-(4-chlorophenyl)-2-(3-phenylpropanamido)thiophene-3-carboxylic acid], the IC50 is below 10 µM. To `O=C(C#Cc1ccccc1)Nc1scc(-c2ccc(Cl)cc2)c1C(=O)O` [4-(4-chlorophenyl)-2-(3-phenylpropiolamido)thiophene-3-carboxylic acid] belongs below 10 µM. The same measure for `O=C(Nc1scc(-c2ccc(Cl)cc2)c1C(=O)O)c1cc2c(Cl)cc(Cl)cc2[nH]1` [4-(4-chlorophenyl)-2-(4,6-dichloro-1H-indole-2-carboxamido)thiophene-3-carboxylic acid]: below 10 µM; for `O=C(Nc1scc(-c2ccc(Cl)cc2)c1C(=O)O)c1nc2c(F)cc(F)cc2o1` [4-(4-chlorophenyl)-2-(4,6-difluorobenzo[d]oxazole-2-carboxamido)thiophene-3-carboxylic acid]: below 10 µM. Consider `O=C(Nc1scc(-c2ccc(Cl)cc2)c1C(=O)O)c1cc2c(Cl)cccn2n1` [4-(4-chlorophenyl)-2-(4-chloropyrazolo[1,5-a]pyridine-2-carboxamido)thiophene-3-carboxylic acid], for which the IC50 was below 10 µM. The same measure for `O=C(Nc1scc(-c2ccc(Cl)cc2)c1C(=O)O)c1nc(C2CC2)cs1` [4-(4-chlorophenyl)-2-(4-cyclopropylthiazole-2-carboxamido)thiophene-3-carboxylic acid]: below 10 µM.
